Values quoted from earlier work as cited in publication PMC5655430 (PLoS ONE, 2017).

Key:
[1] = system: glucagon-like peptide 1 receptor (Glp1r)
Text: (§1) The complex nature of diabetic disorder necessitates use of combination therapies that will not only reduce hyperglycemia, but also correct other elements of diabetes complication, such as dyslipidemia. An increasingly common approach in peptide therapeutics focuses on hybrid peptides that can target two or even three receptors. […] Similar dual agonist peptides, with improved half-life and potency have been rep ...

[2] = system: glucagon receptor (Gcgr)
Text: as §1

Oxyntomodulin
Binding and activation on Glp1r [1]: weak binding and activation | Binding and activation on Gcgr [2]: weak binding and activation
